Measured values taken from patent US10172875B2, “Therapeutic combinations comprising anti-FOLR1 immunoconjugates” (ImmunoGen, Inc., priority 2015, dated 2019).
Read-outs that look alike come from different tables or passages of the source.

Assays:
[1] = test system: ST088 human epithelial ovarian cancer patient derived tumor xenografts; assay: Antitumor activity of IMGN853, PLD and combination in ST088 tumor model (Example 1); format: in vivo, SCID mice
Description: Tumor volumes were measured twice weekly in three dimensions using a caliper. […] FIG. 1 depicts the results.

[2] = test system: platinum-resistant ovarian cancer PDXs; assay: IMGN853 with bevacizumab in platinum-resistant ovarian cancer PDX, 102-day study (FIG. 11B); format: in vivo, mice; conditions: IMGN853 5 mg/kg QWx2, bevacizumab 5 mg/kg QWx2, alone or combined
From the text: Tumor growth was monitored out to 102 days. * P=0.011; ** P=0.018; ns, not significant (Wilcoxon test, non-adjusted).

[3] = test system: IGROV-1 ovarian tumor xenografts; assay: Antitumor activity of IMGN853, bevacizumab and combination in IGROV-1 tumor model (Example 5); format: in vivo, SCID mice; conditions: IMGN853 5 mg/kg 1× and/or bevacizumab 5 mg/kg 1×
From the text: All treatments consisted of single doses (1×).
FIG. 4 depicts the results.

[4] = test system: OV90 serous ovarian tumor xenografts; assay: Antitumor activity of IMGN853, cediranib and combination in OV90 tumor model (Example 9); format: in vivo, SCID mice; conditions: IMGN853 2.5 mg/kg 1× and/or cediranib 1.5 mg/kg qd×5
From the text: The term “respond favorably” generally refers to causing a beneficial state in a subject. With respect to cancer treatment, the term refers to providing a therapeutic effect on the subject. Positive therapeutic effects in cancer can be measured in a number of ways (See, W. A. Weber, J. Nucl. Med. 50:1S-10S (2009)). For example, tumor growth inhibition, molecular marker expression, serum marker expression, and molecular imaging techniques can all be used to assess therapeutic efficacy of an anti-cancer therapeutic. Log10 Cell Kill (LCK) can be used to quantify the tumor cell kill. Log10 cell kill (LCK) is calculated with the formula LCK=(T−C)/Td×3.32, where (T−C) (or tumor growth delay (TGD)) is the median time (in days) for the treatment group and control group tumors to reach a predetermined size (tumor-free survivors excluded). Td is the tumor doubling time (estimated from nonlinear exponential curve fit of daily median of control tumor growth), and 3.32 is the number of cell doublings per log of cell growth. The ability to reduce tumor volume may be assessed, for example, by measuring a % T/C value, which is the median tumor volume of treated subjects divided by the median tumor volume of the control subjects. With respect to tumor growth inhibition, according to NCI standards, a T/C≤42% is the minimum level of anti-tumor activity. A T/C<10% is considered a high anti-tumor activity level, with T/C (%)=Median tumor volume of the treated/Median tumor volume of the control×100. A favorable response can be assessed, for example, by increased progression-free survival (PFS), disease-free survival (DFS), or overall survival (OS), complete response (CR), partial response (PR), or, in some cases, stable disease (SD), a decrease in progressive disease (PD), a […] time to progression (TTP), a decrease in CA125 in the case of ovarian cancer, or any combination thereof.

IGROV-1 cells = assay: Cell cycle analysis, IMGN853 and carboplatin (FIG. 9B); format: cell-based; conditions: carboplatin 20 μM, IMGN853 8 nM, alone or combined, 6 hours, then 24 hour drug-free medium
Description: Cells were washed, and cell cycle distribution determined following 24 hour culture in drug-free medium.

γH2AX = γH2AX immunoblot of cellular extracts, IMGN853 and carboplatin (FIG. 9C); format: cell-based; conditions: carboplatin 40 μM, IMGN853 16 nM, alone or combined, 6 hours, then 18 hours drug-free medium
From the text: Cellular extracts were immunoblotted for γH2AX or actin (loading control) as indicated.

[5] = test system: platinum-sensitive ovarian cancer patient derived xenografts (PDXs); assay: IMGN853 and carboplatin, single administration, in platinum-sensitive ovarian cancer PDX (FIG. 9D); format: in vivo, SCID mice
Description: Data are expressed as mean and standard error of the mean (SEM) for each time point.
To examine whether these in vitro cellular effects translated to improved efficacy in vivo, mice bearing patient-derived xenografts (PDX) obtained from an individual with EOC were treated with IMGN853 and carboplatin, both as single agents and in combination (FIG. 9D). […] Animals received a single administration of IMGN853 (2.5 mg/kg) or carboplatin (80 mg/kg), and each regimen inhibited tumor growth as monotherapy (T/C values of 43% and 20% on day 39, respectively).

[6] = test system: platinum-resistant ovarian cancer PDXs; assay: IMGN853 and PLD in platinum-resistant EOC PDX model (FIG. 10C, 10D); format: in vivo, SCID mice; conditions: QWx2: IMGN853 5 mg/kg or PLD 4 mg/kg; day 49
Description: Data are expressed as mean and SEM for each time point.
Mean values are plotted against vehicle controls.
To extend the in vitro observations, the combination of IMGN853 and PLD was examined in a platinum-resistant EOC PDX model (FIG. 10C). Vehicle-treated animals progressed quickly and were removed from study when tumors reached volumes between 1500-2000 mm^3. QWx2 dosing of IMGN853 (5 mg/kg) inhibited tumor growth by 81% on day 49, and a similar degree of inhibition (83%) was seen when PLD (4 mg/kg) was administered on the same schedule.

OV-90 xenografts = assay: OV-90 tumors harvested 4 days post-dosing: histology, γH2AX, CD31, anti-maytansine (FIGS. 12A-12C); format: in vivo, mice; conditions: IMGN853 2.5 mg/kg and/or bevacizumab 5 mg/kg
Description: Original magnification, 4×; scale bars, 2 mm (for Combination panel, 600 μm).
For each group, representative micrographs from one of three tumors are shown. Original magnification, 20×; scale bars, 200 μm.
Next, as a pharmacodynamic readout, tumor γH2AX levels were measured by immunoblotting (FIG. 12B).
While genotoxic insults are the primary inducers of γH2AX, accumulation of this protein can also occur in response to hypoxia. […] In order to examine treatment-related effects on microvessels, immunohistochemical staining with the endothelial cell marker CD31 was performed (FIG. 12C, upper panel).

[7] = test system: H2110 non-small cell lung cancer (NSCLC) tumor xenografts; conditions: for CR / PR: responders/animals
Description: Mice were randomized into groups (n=6-10 per group) by tumor volume and subsequently dosed on Day 7 post-inoculation. All treatments consisted of single doses (1×).
Tumor volumes were measured one to two times weekly in three dimensions using a caliper. The tumor volume was expressed in mm^3 using the formula V=Length×Width×Height×½ (Tomayko 1989). Body weights were measured twice per week as an index of test agent toxicity. Activity was assessed as described in Bissery et al. (1991).

[8] = IMGN853 5 mg/kg QWx2 and/or PLD 4 mg/kg QWx2
[9] = IMGN853 5 mg/kg QWx2 and/or PLD 4 mg/kg QWx2, responders/animals
[10] = IMGN853 1.5 mg/kg 1×, alone or with bevacizumab 5 mg/kg 1×
[11] = IMGN853 3 mg/kg 1× and/or bevacizumab 5 mg/kg 1×

Substance: IMGN853
- tolerability / body weight ([1]; IMGN853 5 mg/kg QWx2): well tolerated with no notable body weight loss observed
- T/C [1, 8]: 31%
- antitumor activity rating [1, 8]: active
- complete responses (CR) [1, 9]: 0/8
- partial responses (PR) [1, 9]: 0/8
- antitumor effect [2]: moderate activity
- T/C [3]: 20%
- TFS [3]: 0/4
- antitumor activity rating [3]: active
- CR ([3]; responders/animals): 0/4
- T/C [4]: 31%
- antitumor activity rating [4]: active
- LCK ([4]; Log10 cell kill): 0.5
- PR ([4]; responders/animals): 0/6
- T−C ([4]; tumor growth delay): 13 days
- cell cycle distribution (IGROV-1 cells): enrichment of cells in G2/M
- γH2AX expression (γH2AX): induced γH2AX expression in IGROV-1 cells and to levels higher than those seen following carboplatin exposure alone
- single agent activity, previously determined (data not shown) ([5]; dose not stated): robust single agent activity
- T/C ([5]; single administration: IMGN853 2.5 mg/kg and/or carboplatin 80 mg/kg, day 39): 43%
- tumor growth inhibition [6]: 81%
- tumor γH2AX levels by immunoblotting (OV-90 xenografts; 4 days post-dosing): robustly induced
- tumor microvessels, CD31 immunohistochemical staining (OV-90 xenografts; day 4): numerous large vessels
- T/C [7, 10]: 64%
- TFS [7, 10]: 0/6
- antitumor activity rating [7, 10]: inactive
- CR [7, 10]: 0/6
- PR [7, 10]: 1/6
- body weight loss ([7]; IMGN853 1.5 mg/kg monotherapy, Day 25 post-inoculation): 8%
- T/C [7, 11]: 25%
- TFS [7, 11]: 0/6
- antitumor activity rating [7, 11]: active
- CR [7, 11]: 0/6
- PR [7, 11]: 2/6
- body weight loss ([7]; IMGN853 3 mg/kg monotherapy, Day 42 post-inoculation): 9%
